In patent US20220184155A1, “BACTERIOPHAGES FOR INHIBITING BACTERIA” (REGENTS OF THE UNIVERSITY OF MINNESOTA, priority 2020, published 2022):
Like-named read-outs stand apart in the source and are kept apart here.

System: mix-culture of E. coli strains (E20, 41, 55, and 59)
Experiment: Checkerboard titration assay, phage cocktail with antibiotics
Assay type: cell-based
Experimental: A checkerboard titration assay was performed as described previously (Hsieh et al. Diagn Microbiol Infect Dis 16, 343-349 (1993)). Briefly, antibiotics (cefoperazone, vancomycin, polymyxin B, and rifampicin) were two-fold serially diluted on each column, and phage cocktail was 10-fold diluted on each row. The mix-culture of E. coli strains (E20, 41, 55, and 59) was added to 10^5 CFU/well, and the plate was incubated at 42° C. for 24 hours. The OD600 was measured with SpectaMax i3 Platfrom (Molecular Devices, San Jose, Calif.), and shown as a heat plot.
Because the selective pressure of the enrichment media is determined by antibiotic supplements in the media, the inhibition efficacy of the phage cocktail was measured in the presence of four antibiotics (cefoperazone, vancomycin, polymyxin B, and rifampicin) used in BB and PB. […] A checkerboard assay was performed to examine the antimicrobial activity of the phage cocktail in combination with antibiotics.

[1] = antibiotic without the phage cocktail, 42° C., 24 hours
[2] = Escherichia coli, antibiotic without the phage cocktail, 42° C., 24 hours, read-out: MIC

Row | MIC [2] | Compound | MIC [1] | MIC (Escherichia coli, 24 h)
1 | – | polymyxin B | 4 µg/mL | –
2 | > 512 µg/mL | CCN1CCN(C(=O)N[C@@H](C(=O)N[C@@H]2C(=O)N3C(C(=O)O)=C(CSc4nnnn4C)CS[C@H]23)c2ccc(O)cc2)C(=O)C1=O [cefoperazone] | > 512 µg/mL | –
3 | – | CN[C@H](CC(C)C)C(=O)N[C@H]1C(=O)N[C@@H](CC(N)=O)C(=O)N[C@H]2C(=O)N[C@H]3C(=O)N[C@H](C(=O)N[C@H](C(=O)O)c4cc(O)cc(O)c4-c4cc3ccc4O)[C@H](O)c3ccc(c(Cl)c3)Oc3cc2cc(c3O[C@@H]2O[C@H](CO)[C@@H](O)[C@H](O)[C@H]2O[C@H]2C[C@](C)(N)[C@H](O)[C@H](C)O2)Oc2ccc(cc2Cl)[C@H]1O [vancomycin] | – | 64 µg/mL
4 | 32 µg/mL | CO[C@H]1/C=C/O[C@@]2(C)Oc3c(C)c(O)c4c(O)c(c(/C=N/N5CCN(C)CC5)c(O)c4c3C2=O)NC(=O)/C(C)=C\C=C\[C@H](C)[C@H](O)[C@@H](C)[C@@H](O)[C@@H](C)[C@H](OC(C)=O)[C@@H]1C [rifampicin] | – | –
